pEC50, pIC50: −log10 of the molar value.

One experiment deals with T1, 5-HT transporter (h) (Homo sapiens, UniProt P31645).
T1 construct: expressed in transfected cells; host or cells: CHO cells
Kind of experiment: Binding 5-HT transporter (h) (aa). To be noted: read-out: % Inhibition of Control Specific Binding @ 10 μM. As for the experimental part: (§1) Radioligand binding assay methods utilized to measure the activity of compounds of the invention will be familiar to those skilled in the art. In each assay case, the assay components such as, for example, the cell-type, ligand, reference compound and the like, will be familiar to practitioners of such an assay.
(§2) Analysis and Expression of Results: Compounds of the invention were tested in the biochemical assays and percent inhibition of specific binding was determined. The specific ligand binding to the receptors is defined as the difference between the total binding and the nonspecific binding determined in the presence of an excess of unlabelled ligand. The results are expressed as a percent inhibition of control specific binding (100−((measured specific binding/control specific binding)×100)) obtained in the presence of test compounds.

Another experiment has as its target T2, Endothelin ETB (h) (Homo sapiens, UniProt P24530).
T2 construct: expressed in transfected cells; host or cells: CHO cells
T2 sequence (P24530 27-442): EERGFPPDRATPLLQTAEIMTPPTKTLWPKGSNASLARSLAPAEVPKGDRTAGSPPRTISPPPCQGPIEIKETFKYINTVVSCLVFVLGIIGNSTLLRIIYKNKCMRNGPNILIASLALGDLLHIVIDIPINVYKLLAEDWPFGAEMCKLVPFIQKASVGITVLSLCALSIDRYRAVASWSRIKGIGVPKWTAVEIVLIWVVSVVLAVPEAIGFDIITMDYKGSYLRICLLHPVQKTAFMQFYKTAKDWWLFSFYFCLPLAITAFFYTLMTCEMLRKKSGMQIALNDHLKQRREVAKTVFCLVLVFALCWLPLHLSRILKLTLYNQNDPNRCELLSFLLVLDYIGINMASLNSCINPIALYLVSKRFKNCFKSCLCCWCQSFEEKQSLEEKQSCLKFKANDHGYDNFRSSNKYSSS
The experiment in a line: Binding ETB (h) (ag). The following applies: read-out: % Inhibition of Control Specific Binding @ 10 μM. The method, then: as §1, §2

For the next experiment, the target named is T3, β2 (h) (Homo sapiens, UniProt P07550).
T3 construct: expressed in transfected cells; host or cells: CHO cells
T3 sequence (P07550 whole entry): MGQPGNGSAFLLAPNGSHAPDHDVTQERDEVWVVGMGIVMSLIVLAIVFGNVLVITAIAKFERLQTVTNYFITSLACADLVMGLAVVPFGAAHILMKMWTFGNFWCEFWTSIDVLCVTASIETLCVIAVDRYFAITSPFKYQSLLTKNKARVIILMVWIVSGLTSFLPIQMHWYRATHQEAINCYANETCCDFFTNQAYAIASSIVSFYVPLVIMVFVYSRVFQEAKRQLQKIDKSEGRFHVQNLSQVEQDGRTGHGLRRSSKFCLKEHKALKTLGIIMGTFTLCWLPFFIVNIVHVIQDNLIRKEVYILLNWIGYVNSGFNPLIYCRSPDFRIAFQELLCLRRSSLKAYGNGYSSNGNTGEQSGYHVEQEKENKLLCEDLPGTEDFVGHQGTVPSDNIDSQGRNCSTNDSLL
The experiment in a line: Binding β2 (h) (ag). The following applies: read-out: % Inhibition of Control Specific Binding @ 10 μM. The method, then:
as §1, §2

Another experiment has as its target T4, Cannabinoid CB2 (h) (Homo sapiens, UniProt P34972).
T4 construct: expressed in transfected cells; host or cells: CHO cells
Kind of experiment: Binding CB2 (h) (ag). To be noted: read-out: % Inhibition of Control Specific Binding @ 10 μM. As for the experimental part: as §1, §2

The subject of experiment [1] is Ca^2+ channel (L, diltiazem site) (benzothiazepines). The experiment in a line: Binding Ca2+ channel (L, diltiazem site) (aa). More on the design: species or system rat. The method, then: as §1, §2
A further experiment has as its target T5, BLT1 (LTB4) (h) (Homo sapiens, UniProt Q15722).
T5 construct: expressed in transfected cells; host or cells: CHO cells
Kind of experiment: Binding BLT1 (LTB4) (h) (ag). To be noted: read-out: % Inhibition of Control Specific Binding @ 10 μM. As for the experimental part: as §1, §2

In the next experiment the target is T6, Vasopressin V2 (h) (Homo sapiens, UniProt P30518).
T6 construct: expressed in transfected cells; host or cells: CHO cells
T6 sequence (P30518 whole entry): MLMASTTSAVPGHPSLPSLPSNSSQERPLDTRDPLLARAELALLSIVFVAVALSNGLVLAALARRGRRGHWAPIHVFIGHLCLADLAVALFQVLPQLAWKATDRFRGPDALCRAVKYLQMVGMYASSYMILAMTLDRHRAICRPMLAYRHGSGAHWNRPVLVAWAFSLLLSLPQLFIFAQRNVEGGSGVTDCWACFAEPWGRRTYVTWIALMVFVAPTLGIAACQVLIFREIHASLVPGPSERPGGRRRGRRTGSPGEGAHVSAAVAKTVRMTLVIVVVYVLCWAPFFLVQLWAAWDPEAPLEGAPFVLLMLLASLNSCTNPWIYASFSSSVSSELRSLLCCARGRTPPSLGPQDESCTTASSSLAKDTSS
Kind of experiment: Binding V2 (h) (ag). To be noted: read-out: % Inhibition of Control Specific Binding @ 10 μM. As for the experimental part:
as §1, §2

A further experiment has as its system COMT. The experiment in a line: Enzyme assay COMT. Type of experiment: biochemical, porcine. An excerpt: The enzyme assays provided below will be familiar to those skilled in the art.
Analysis and Expression of Results: The results are expressed as a percent of control specific activity ((measured specific activity/control specific activity)×100) obtained in the presence of the test compounds.

For another experiment, the target named is T7, Androgen Receptor (Homo sapiens, UniProt P10275).
T7 construct: expressed in transfected cells; host or cells: PathHunter NHRPro cell lines
T7 sequence (P10275 1-920): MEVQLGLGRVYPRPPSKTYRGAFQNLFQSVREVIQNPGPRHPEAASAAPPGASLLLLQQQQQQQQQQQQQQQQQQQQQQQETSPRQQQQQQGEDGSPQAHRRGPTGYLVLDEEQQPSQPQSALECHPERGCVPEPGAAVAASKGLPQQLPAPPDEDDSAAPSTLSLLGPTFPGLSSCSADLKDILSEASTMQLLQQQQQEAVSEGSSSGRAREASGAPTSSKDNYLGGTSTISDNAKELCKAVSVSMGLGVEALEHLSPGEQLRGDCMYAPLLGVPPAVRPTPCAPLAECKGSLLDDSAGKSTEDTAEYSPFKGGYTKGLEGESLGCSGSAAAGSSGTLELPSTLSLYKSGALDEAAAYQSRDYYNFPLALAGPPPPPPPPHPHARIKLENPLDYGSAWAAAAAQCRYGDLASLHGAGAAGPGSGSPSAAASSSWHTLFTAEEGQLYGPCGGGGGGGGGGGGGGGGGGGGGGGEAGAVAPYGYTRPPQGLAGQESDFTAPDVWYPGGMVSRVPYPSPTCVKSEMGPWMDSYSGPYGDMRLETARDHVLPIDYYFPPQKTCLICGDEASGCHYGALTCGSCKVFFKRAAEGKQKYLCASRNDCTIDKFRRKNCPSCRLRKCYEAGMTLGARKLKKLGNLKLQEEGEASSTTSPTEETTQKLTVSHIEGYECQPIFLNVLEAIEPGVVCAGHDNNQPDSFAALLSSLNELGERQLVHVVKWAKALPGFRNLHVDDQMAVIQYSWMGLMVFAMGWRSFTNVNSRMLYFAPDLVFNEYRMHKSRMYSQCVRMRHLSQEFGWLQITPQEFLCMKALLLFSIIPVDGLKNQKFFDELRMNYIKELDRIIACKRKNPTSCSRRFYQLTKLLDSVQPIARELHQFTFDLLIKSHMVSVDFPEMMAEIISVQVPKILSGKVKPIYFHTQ
The experiment in a line: Androgen Receptor Nuclear Translocation Assay. Type of experiment: cell-based. To be noted: for pEC50: agonist mode, PathHunter NHRPro cells, 5 h, read-out: AR Nuclear Translocation Assay Agonist Mode EC50; for pIC50: antagonist mode, agonist challenge at EC80, read-out: AR Nuclear Translocation Assay Antagonist Mode IC50. As for the experimental part: Once it was established that the cells were healthy and growing normally, cells were transferred from flasks using trypsin-free cell dissociation buffer and seeded into white walled clear bottom 384-well microplates for compound profiling. For profiling, cells were seeded at a density of 10,000 cells per well in a total volume of 50 μL and were allowed to adhere and recover overnight prior to compound addition. Media contained charcoal-dextran filtered serum to reduce the level of hormones present.
Agonist Format: Intermediate dilution of compound stocks were generated such that 5.5 μL of 10X compound could be added to each well with a final DMSO concentration of 1% of total volume. For profiling compound in agonist mode, the cells were incubated in the presence of compound at 37° C. for 5 h.
Antagonist Format: Agonist dose curves were performed to determine the EC80 value for the following antagonist testing with compounds. 5.5 μL of 10× agonist was added to each well with an equal concentration of vehicle present. EC80 agonist concentration was determined directly from agonist dose curve. For antagonist determination, cells were pre-incubated with antagonist followed by agonist challenge at the EC80 concentration: 5.5 μL of 10× compound added to cells and incubated at 37° C. for 1 h; 5.5 μL of 11× EC80 agonist added to cells and incubated at 37° C. for 5 h.
Signal Detection: After appropriate compound incubation, assay signal was generated through a single addition of 30 μL (50% v/v) of PathHunter Detection reagent cocktail for agonist and antagonist assays respectively followed by 1 h incubation at room temperature. Microplates were read following signal generation with a PerkinElmer ViewLux™ instrument for chemiluminescent signal detection.
Data Analysis: Dose curves in the presence and absence of compound were plotted using GraphPad Prism.

T4 sequence (P34972 whole entry): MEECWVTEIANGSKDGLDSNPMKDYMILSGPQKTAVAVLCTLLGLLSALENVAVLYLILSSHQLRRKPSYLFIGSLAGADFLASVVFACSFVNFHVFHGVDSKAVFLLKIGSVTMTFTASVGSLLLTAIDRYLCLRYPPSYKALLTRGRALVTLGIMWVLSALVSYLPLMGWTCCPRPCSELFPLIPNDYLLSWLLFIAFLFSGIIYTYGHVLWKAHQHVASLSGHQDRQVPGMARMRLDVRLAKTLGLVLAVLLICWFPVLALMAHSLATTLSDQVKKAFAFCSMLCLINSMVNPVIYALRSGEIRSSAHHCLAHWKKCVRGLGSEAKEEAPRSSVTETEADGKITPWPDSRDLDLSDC
T1 sequence (P31645 whole entry): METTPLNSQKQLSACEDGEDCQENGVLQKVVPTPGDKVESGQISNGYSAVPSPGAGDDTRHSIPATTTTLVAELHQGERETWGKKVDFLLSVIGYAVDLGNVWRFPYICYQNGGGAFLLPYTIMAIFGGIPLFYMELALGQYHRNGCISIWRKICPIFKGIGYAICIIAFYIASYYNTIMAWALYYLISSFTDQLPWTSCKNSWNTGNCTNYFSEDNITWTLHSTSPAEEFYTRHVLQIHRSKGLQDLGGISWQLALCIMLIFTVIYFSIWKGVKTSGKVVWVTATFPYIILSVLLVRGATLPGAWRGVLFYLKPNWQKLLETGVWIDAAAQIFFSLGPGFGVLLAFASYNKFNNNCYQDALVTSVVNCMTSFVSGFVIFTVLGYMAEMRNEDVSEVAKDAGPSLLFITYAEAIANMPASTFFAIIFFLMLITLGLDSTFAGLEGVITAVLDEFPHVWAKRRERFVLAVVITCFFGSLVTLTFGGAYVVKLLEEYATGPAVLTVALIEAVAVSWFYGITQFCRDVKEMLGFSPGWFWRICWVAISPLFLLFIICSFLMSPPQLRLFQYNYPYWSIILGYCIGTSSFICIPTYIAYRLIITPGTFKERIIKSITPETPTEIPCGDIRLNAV
T5 sequence (Q15722 whole entry): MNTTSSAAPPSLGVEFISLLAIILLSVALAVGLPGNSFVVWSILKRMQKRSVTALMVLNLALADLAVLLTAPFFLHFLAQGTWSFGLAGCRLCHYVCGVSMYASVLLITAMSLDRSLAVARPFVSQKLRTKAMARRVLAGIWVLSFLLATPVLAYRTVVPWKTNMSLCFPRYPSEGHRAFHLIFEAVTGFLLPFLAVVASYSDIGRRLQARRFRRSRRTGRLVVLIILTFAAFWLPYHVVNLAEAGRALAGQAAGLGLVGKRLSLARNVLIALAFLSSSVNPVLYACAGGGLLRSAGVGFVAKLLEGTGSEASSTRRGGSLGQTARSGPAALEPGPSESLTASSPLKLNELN

Turning to `CC1(C)C(=O)N(c2ccc(C#N)c(C(F)(F)F)c2)C(=S)N1c1ccc(C(=O)O)c(F)c1` [(MI), 4-(3-(4-cyano-3-(trifluoromethyl)phenyl)-5,5-dimethyl-4-oxo-2-thioxoimidazolidin-1-yl)-2-fluorobenzoic acid], the inhibition (usually the change of the read-out against control, counted positive when it falls) at 10 µM on 5-HT transporter (h) was 1%; on Endothelin ETB (h), -7%; at β2 (h), 6%; on Cannabinoid CB2 (h) it was -2%; on BLT1 (LTB4) (h), -15%; at Vasopressin V2 (h), 5%. Besides, in [1], the “% Inhibition of Control Specific Binding @ 10 μM” value came to 2%. The “% Inhibition of Control Values @ 10 μM” value in the experiment on COMT turned out to be 1%. The pEC50 (commonly −log10 of the EC50, conventionally taken in molar units) at Androgen Receptor is less than 4.22. Besides, on Androgen Receptor, the negative logarithm of the IC50 (pIC50) (as a rule, −log10 of the IC50, conventionally taken in molar units) was less than 4.22.
Turning to `CC1(C)C(=O)N(c2ccc(C#N)c(C(F)(F)F)c2)C(=S)N1c1ccc(C(N)=O)c(F)c1` [(MII), 4-(3-(4-Cyano-3-(trifluoromethyl)phenyl)-5,5-dimethyl-4-oxo-2-thioxoimidazolidin-1-yl)-2-fluorobenzamide], the inhibition at 10 µM at 5-HT transporter (h) is 16%; on Endothelin ETB (h), -4%; at β2 (h), -3%; on Cannabinoid CB2 (h), 1%; at BLT1 (LTB4) (h), -8%; at Vasopressin V2 (h) it was 3%. For the same molecule, the “% Inhibition of Control Specific Binding @ 10 μM” value in [1] was 22%. For the same molecule, the “% Inhibition of Control Values @ 10 μM” value in the experiment with COMT is −1%. In addition, the pEC50 on Androgen Receptor was less than 4.22. The pIC50 at Androgen Receptor is 5.49.
In the case of `CC1(C)C(=O)N(c2ccc(C#N)c(C(F)(F)F)c2)C(=O)N1c1ccc(C(N)=O)c(F)c1` [(MIII), 4-(3-(4-cyano-3-(trifluoromethyl)phenyl)-5,5-dimethyl-2,4-dioxoimidazolidin-1-yl)-2-fluorobenzamide], the inhibition at 10 µM on 5-HT transporter (h) was 13%; on Endothelin ETB (h), 0%; at β2 (h), -6%; at Cannabinoid CB2 (h), -3%; on BLT1 (LTB4) (h), -4%; on Vasopressin V2 (h), 4%. Further, the “% Inhibition of Control Specific Binding @ 10 μM” value in [1] is on record as −2%. Also, the “% Inhibition of Control Values @ 10 μM” value in the experiment on COMT is −1%. The pEC50 at Androgen Receptor is less than 4.22. For the same molecule, at Androgen Receptor, the negative-log IC50 (pIC50) was 4.79.
For the molecule `CNC(=O)c1ccc(N2C(=O)N(c3ccc(C#N)c(C(F)(F)F)c3)C(=O)C2(C)C)cc1F` [(MIV), 4-(3-(4-cyano-3-(trifluoromethyl)phenyl)-5,5-dimethyl-2,4-dioxoimidazolidin-1-yl)-2-fluoro-N-methylbenzamide], the inhibition at 10 µM is 18% on 5-HT transporter (h); -3% on Endothelin ETB (h); -10% at β2 (h); 1% at Cannabinoid CB2 (h); -6% on BLT1 (LTB4) (h); -1% at Vasopressin V2 (h). Besides, in experiment [1], the “% Inhibition of Control Specific Binding @ 10 μM” value is given as 1%. The “% Inhibition of Control Values @ 10 μM” value in the experiment with COMT stood at 0%. For the same molecule, the negative-log EC50 (pEC50) at Androgen Receptor was less than 4.22. In addition, the pIC50 on Androgen Receptor is 4.94.
